From patent US12310975B2, “Modulators of BCL6 proteolysis and associated methods of use” (Arvinas Operations, Inc., priority 2019, dated 2025)

Target: BCL6 (Homo sapiens (Human), UniProt P41182)
Assay: BCL6 TR-FRET assay (BCL6-Avitag-Biotin / BCoR-Cy5 peptide)
Format: binding
Conditions: for IC50: read-out: IC50
Description: Protein Synthesis. BCL6 protein was expressed by transforming Invitrogen One Shot cells with GS63525 pET24a-His-SUMO-TEV-BCLm-Avitag plasmid following manufacturer's instructions. In addition, biotin at a final concentration of 50 μM, and IPTG at a final concentration of 1 mM was added to the culture and incubated at room temperature shaking overnight.
Assay buffer A: 50 mM HEPES pH 7.5, 125 mM NaCl, 0.01% TritonX.
Assay buffer B (made fresh): buffer A+1 mM Glutathione (or 0.5 mM DTT).
Assay buffer C (made fresh): buffer B+0.03% BSA.
Black Proxy plates, 96 well.
15 μl final reaction volumes (BCoR-Cy5 100 nM, SA-Eu 2 nM, BCL6-avitag 2 nM).
[…] BCL6-Avitag-Biotin stock: made fresh by adding 2 μl of BCL6-Avitag-Biotin to 31.5 ml Buffer C.
1 mM BCoR-Cy5 peptide (LifeTein) stock in Dimethylformamide (DMF).
300 nM BCoR-Cy5 working stock: made fresh by adding 4.5 μl of the 1 mM BCoR-Cy5 peptide stock to 15 ml Buffer B.
10 μM Eu-Streptavidin (Lance Eu-W1024 Streptavidin, PerkinElmer) stock solution.
6 nM Eu-Streptavidin working stock: made fresh by adding 9 μl Eu-Streptavidin stock solution to 15 ml Buffer A.
Compounds were diluted to 10 mM. Twenty microliters of DMSO was aliquoted to each well of the microtiter plates. From the 10 mM compound stock, 8.7 ul was aliquoted to the 20 ul DMSO and 3-fold serial dilutions (12 pt 3-0.01 uM tritration plate, 96 well, 100% DMSO) performed. Five ul from the titration plate wells was aliquoted to 45 ul Buff C (Intermediate dilution plates, 10% DMSO).
Spot 1.5 μl compound titrations to 384-well plates in duplicate, and spot 3.5 μl [8.5 nM] BCL6-bio protein to each well. The plate was mix briefly, centrifuged, and incubated for 30 minutes at room temperature.
Mix 14 mls of BCoR-Cy5 [300 nM] and 14 mls [6 nM] Eu-Streptavidin. Spot 10 μl BCoR-Cy5/SA-Eu (1:1) mix to each well. The plates were incubated for 2 hours and then read on an Envision plate reader.

Row | SMILES | IC50 [nM] | EC50 [nM]
1 | CNC(=O)COc1cc2cc(Nc3nc(N4CCC(O[C@@H]5C[C@H](COc6ccc7c(c6)C(=O)N(C6CCC(=O)NC6=O)C7=O)N(C)C5)CC4)ncc3Cl)ccc2n(C(C)C)c1=O (stereo partly drawn) [compound 460, 2-[(6-{[5-chloro-2-(4-{[(3R,5R)-5-({[2-(2,6-dioxopiperidin-3-yl)-1,3-dioxo-2,3-dihydro-1H-isoindol-5-yl]oxy}methyl)-1-methylpyrrolidin-3-yl]oxy}piperidin-1-yl)pyrimidin-4-yl]amino}-2-oxo-1-(propan-2-yl)-1,2-dihydroquinolin-3-yl)oxy]-N-methylacetamide] | ≥ 100 | 
2 | CNC(=O)COc1cc2cc(Nc3nc(N4CCC(O[C@H]5C[C@@H](COc6ccc7c(c6)C(=O)N(C6CCC(=O)NC6=O)C7=O)N(C)C5)CC4)ncc3Cl)ccc2n(C(C)C)c1=O (stereo partly drawn) [compound 456, 2-[(6-{[5-chloro-2-(4-{[(3S,5S)-5-({[2-(2,6-dioxopiperidin-3-yl)-1,3-dioxo-2,3-dihydro-1H-isoindol-5-yl]oxy}methyl)-1-methylpyrrolidin-3-yl]oxy}piperidin-1-yl)pyrimidin-4-yl]amino}-2-oxo-1-(propan-2-yl)-1,2-dihydroquinolin-3-yl)oxy]-N-methylacetamide] | ≥ 100 | 
3 | Cn1c(=O)c(OC2COC2)cc2cc(Nc3nc(N4CCC(CN5CCN(c6ccc7c(c6)C(=O)N(C6CCC(=O)NC6=O)C7=O)CC5)CC4)ncc3Cl)ccc21 (stereo not drawn) [compound 223, 5-(4-((1-(5-chloro-4-((1-methyl-3-(oxetan-3-yloxy)-2-oxo-1,2-dihydroquinolin-6-yl)amino)pyrimidin-2-yl)piperidin-4-yl)methyl)piperazin-1-yl)-2-(2,6-dioxopiperidin-3-yl)isoindoline-1,3-dione] |  | > 100
4 | CNC(=O)COc1cc2cc(Nc3nc(N4CCC(O[C@H]5C[C@@H](Oc6ccc7c(c6)C(=O)N(C6CCC(=O)NC6=O)C7=O)CN(C)C5)CC4)ncc3Cl)ccc2n(C(C)C)c1=O (stereo partly drawn) [compound 457, 2-[(6-{[5-chloro-2-(4-{[(3S,5R)-5-{[2-(2,6-dioxopiperidin-3-yl)-1,3-dioxo-2,3-dihydro-1H-isoindol-5-yl]oxy}-1-methylpiperidin-3-yl]oxy}piperidin-1-yl)pyrimidin-4-yl]amino}-2-oxo-1-(propan-2-yl)-1,2-dihydroquinolin-3-yl)oxy]-N-methylacetamide] | ≥ 100 | 
5 | CNC(=O)COc1cc2cc(Nc3nc(N4CCC(O[C@H]5C[C@H](Oc6ccc7c(c6)C(=O)N(C6CCC(=O)NC6=O)C7=O)CN(C)C5)CC4)ncc3Cl)ccc2n(C(C)C)c1=O (stereo partly drawn) [compound 459, 2-[(6-{[5-chloro-2-(4-{[(3S,5S)-5-{[2-(2,6-dioxopiperidin-3-yl)-1,3-dioxo-2,3-dihydro-1H-isoindol-5-yl]oxy}-1-methylpiperidin-3-yl]oxy}piperidin-1-yl)pyrimidin-4-yl]amino}-2-oxo-1-(propan-2-yl)-1,2-dihydroquinolin-3-yl)oxy]-N-methylacetamide] | ≥ 100 | 
6 | CNC(=O)COc1cc2cc(Nc3nc(N4CCC[C@H](COc5cccc6c5C(=O)N(C5CCC(=O)NC5=O)C6=O)C4)ncc3Cl)ccc2n(C)c1=O (stereo partly drawn) [compound 192, 2-((6-((5-chloro-2-((3S)-3-(((2-(2,6-dioxopiperidin-3-yl)-1,3-dioxoisoindolin-4-yl)oxy)methyl)piperidin-1-yl)pyrimidin-4-yl)amino)-1-methyl-2-oxo-1,2-dihydroquinolin-3-yl)oxy)-N-methylacetamide] |  | > 100
7 | CNC(=O)COc1cc2cc(Nc3nc(N4CCC(O[C@@H]5C[C@@H](Oc6ccc7c(c6)C(=O)N(C6CCC(=O)NC6=O)C7=O)CN(C)C5)CC4)ncc3Cl)ccc2n(C(C)C)c1=O (stereo partly drawn) [compound 464, 2-[(6-{[5-chloro-2-(4-{[(3R,5R)-5-{[2-(2,6-dioxopiperidin-3-yl)-1,3-dioxo-2,3-dihydro-1H-isoindol-5-yl]oxy}-1-methylpiperidin-3-yl]oxy}piperidin-1-yl)pyrimidin-4-yl]amino}-2-oxo-1-(propan-2-yl)-1,2-dihydroquinolin-3-yl)oxy]-N-methylacetamide] | ≥ 100 | 

Next, values leading:

Row | IC50 [nM] | EC50 [nM] | SMILES
8 | 10 to 50 |  | CNC(=O)COc1cc2cc(Nc3nc(N4CCC(CN5CCCN(c6cccc(N7CCC(=O)NC7=O)c6OC)CC5)CC4)ncc3Cl)ccc2n(C(C)C)c1=O [compound 535, 2-{[6-({5-chloro-2-[4-({4-[3-(2,4-dioxo-1,3-diazinan-1-yl)-2-methoxyphenyl]-1,4-diazepan-1-yl}methyl)piperidin-1-yl]pyrimidin-4-yl}amino)-2-oxo-1-(propan-2-yl)-1,2-dihydroquinolin-3-yl]oxy}-N-methylacetamide]
9 | ≥ 100 |  | CNC(=O)COc1cc2cc(Nc3nc(N4CCC(O[C@@H]5C[C@H](Oc6cccc7c6C(=O)N(C6CCC(=O)NC6=O)C7=O)CN(C)C5)CC4)ncc3Cl)ccc2n(C(C)C)c1=O (stereo partly drawn) [compound 487, 2-[(6-{[5-chloro-2-(4-{[(3R,5S)-5-{[2-(2,6-dioxopiperidin-3-yl)-1,3-dioxo-2,3-dihydro-1H-isoindol-4-yl]oxy}-1-methylpiperidin-3-yl]oxy}piperidin-1-yl)pyrimidin-4-yl]amino}-2-oxo-1-(propan-2-yl)-1,2-dihydroquinolin-3-yl)oxy]-N-methylacetamide]
10 | ≥ 100 |  | CNC(=O)COc1cc2cc(Nc3nc(N4CCC(CN5CCC6(CC5)CCN(c5ccc(N7CCC(=O)NC7=O)c(OC)c5)C6)CC4)ncc3Cl)ccc2n(C(C)C)c1=O [compound 509, 2-{[6-({5-chloro-2-[4-({2-[4-(2,4-dioxo-1,3-diazinan-1-yl)-3-methoxyphenyl]-2,8-diazaspiro[4.5]decan-8-yl}methyl)piperidin-1-yl]pyrimidin-4-yl}amino)-2-oxo-1-(propan-2-yl)-1,2-dihydroquinolin-3-yl]oxy}-N-methylacetamide]
11 | 10 to 50 |  | CNC(=O)COc1cc2cc(Nc3nc(N4CCC(N5CCC6(CCN(c7cccc8c7C(=O)N(C7CCC(=O)NC7=O)C8=O)C6)CC5)CC4)ncc3Cl)ccc2n(C(C)C)c1=O (stereo not drawn) [compound 528, 2-[(6-{[5-chloro-2-(4-{2-[2-(2,6-dioxopiperidin-3-yl)-1,3-dioxo-2,3-dihydro-1H-isoindol-4-yl]-2,8-diazaspiro[4.5]decan-8-yl}piperidin-1-yl)pyrimidin-4-yl]amino}-2-oxo-1-(propan-2-yl)-1,2-dihydroquinolin-3-yl)oxy]-N-methylacetamide]
12 | ≥ 100 |  | CNC(=O)COc1cc2cc(Nc3nc(N4CCC(O[C@@H]5C[C@@H](COc6cccc7c6C(=O)N(C6CCC(=O)NC6=O)C7=O)N(C)C5)CC4)ncc3Cl)ccc2n(C(C)C)c1=O (stereo partly drawn) [compound 478, 2-[(6-{[5-chloro-2-(4-{[(3R,5S)-5-({[2-(2,6-dioxopiperidin-3-yl)-1,3-dioxo-2,3-dihydro-1H-isoindol-4-yl]oxy}methyl)-1-methylpyrrolidin-3-yl]oxy}piperidin-1-yl)pyrimidin-4-yl]amino}-2-oxo-1-(propan-2-yl)-1,2-dihydroquinolin-3-yl)oxy]-N-methylacetamide]
13 | ≥ 100 |  | CNC(=O)COc1cc2cc(Nc3nc(N4CCC(O[C@@H]5C[C@H](COc6cccc7c6C(=O)N(C6CCC(=O)NC6=O)C7=O)N(C)C5)CC4)ncc3Cl)ccc2n(C(C)C)c1=O (stereo partly drawn) [compound 486, 2-[(6-{[5-chloro-2-(4-{[(3R,5R)-5-({[2-(2,6-dioxopiperidin-3-yl)-1,3-dioxo-2,3-dihydro-1H-isoindol-4-yl]oxy}methyl)-1-methylpyrrolidin-3-yl]oxy}piperidin-1-yl)pyrimidin-4-yl]amino}-2-oxo-1-(propan-2-yl)-1,2-dihydroquinolin-3-yl)oxy]-N-methylacetamide]
14 | 10 to 50 |  | CNC(=O)COc1cc2cc(Nc3nc(N4CCC(CN5CCCN(c6ccc(OC)c(N7CCC(=O)NC7=O)c6)CC5)CC4)ncc3Cl)ccc2n(C(C)C)c1=O [compound 530, 2-{[6-({5-chloro-2-[4-({4-[3-(2,4-dioxo-1,3-diazinan-1-yl)-4-methoxyphenyl]-1,4-diazepan-1-yl}methyl)piperidin-1-yl]pyrimidin-4-yl}amino)-2-oxo-1-(propan-2-yl)-1,2-dihydroquinolin-3-yl]oxy}-N-methylacetamide]
15 | ≥ 100 |  | CNC(=O)COc1cc2cc(Nc3nc(N4CCC(O[C@@H]5C[C@@H](Oc6cccc7c6C(=O)N(C6CCC(=O)NC6=O)C7=O)CN(C)C5)CC4)ncc3Cl)ccc2n(C(C)C)c1=O (stereo partly drawn) [compound 479, 2-[(6-{[5-chloro-2-(4-{[(3R,5R)-5-{[2-(2,6-dioxopiperidin-3-yl)-1,3-dioxo-2,3-dihydro-1H-isoindol-4-yl]oxy}-1-methylpiperidin-3-yl]oxy}piperidin-1-yl)pyrimidin-4-yl]amino}-2-oxo-1-(propan-2-yl)-1,2-dihydroquinolin-3-yl)oxy]-N-methylacetamide]
